Our source for the solubility values is US8545886B2, “Extended release tablet formulations of flibanserin and method for manufacturing the same” (Boehringer Ingelheim International GmbH, priority 2006, dated 2013).

≈ marks a conversion by molar mass, not a printed value.

By solubility is commonly meant the concentration that dissolves in the medium under given conditions. A higher solubility goes with a readily soluble substance.

This data set in a line: Solubility of flibanserin in aqueous media. Format: physicochemical. From the text: In acidic environment compounds such as flibanserin are usually very well water soluble whereas in neutral or basic environment these drugs can be practically insoluble. […] These physicochemical properties of basic compounds make it difficult to develop extended release dosage forms. There is a natural pH gradient from the acidity of the stomach where the pH of physiological fluids are typically around 1-2, through the weakly acidic duodenum to the virtually neutral environment of the small intestine where the pH is in the range of 5-8.

With `O=c1[nH]c2ccccc2n1CCN1CCN(c2cccc(C(F)(F)F)c2)CC1` [flibanserin, 1,3-dihydro-1-[2-[4-[3-(trifluoromethyl)phenyl]-1-piperazinyl]ethyl]-2H-benzimidazole-2-one], the solubility runs as follows: (aqueous buffer, in 0.05 M phosphate buffer pH 6.8) 2 µg/mL (≈ 0.00512 mM); (simulated gastric fluid, in 0.1 N HCl) 6200 µg/mL (≈ 15.9 mM).
